pIC50: −log10 of the molar value.
Test system: IFNγ-Induced NO Production in RAW 264.7 cells
Test: Nitric Oxide Suppression Assay (suppression of IFNγ-induced NO production)
Type: cell-based
Conditions: RAW264.7; RAW 264.7 mouse macrophage cells, 20 ng/mL interferon gamma, Griess detection; single curve fit to mean data of n=2-3
Procedure: RAW 264.7, a mouse macrophage cell line, was obtained from American Type Culture Collection (Manassas Va.) and maintained in the log phase of growth in Dulbecco's Modified Eagle's Medium (DMEM), 10% heat inactivated fetal calf serum and 100 units/mL antibiotic-antimycotic (AA). Cells were cultured and maintained in a humidified incubator at 37° C. under 5% CO2 and 95% air. Cells were sub-cultured every 3 days by scraping and were not used beyond passage 20. All cell culture supplies were obtained from Life Technologies (Grand Island, N.Y.).
RAW 264.7 cells were plated 1 day in advance of experiment at a concentration of 80,000 cells/well onto CellBIND® 96 well plates (Corning, N.Y.) in a total volume of 100 μL. The next day, pre-treat cells with compounds (from 3 μM to 0.3 nM serially diluted in a 10 point curve) from a 10× stock by adding 10 μL per well in complete DMEM media containing 10% fetal calf serum. The plates were centrifuged for 3 minutes at 400×g at room temperature followed by 2 hour incubation at 37° C. The cells were then incubated overnight at 37° C. with 10 μL of the insult, interferon gamma (R&D Systems, Minneapolis, Minn.), from a 10× stock for a final concentration of 20 ng/mL. The plates were centrifuged for 3 minutes at 400×g at room temperature followed by 18 hour incubation at 37° C. The following day, transfer 50 μL cell culture supernatant from each well into a clear bottom 96 well plate and follow the instructions from Promega's Griess Detection Kit #G2930 (Madison, Wis.) which involves the addition of 50 μL of the provided sulfanilamide solution for a 5-10 minute incubation at room temperature. Next add 50 μL of the provided N-1-napthylethylenediamine dihydrochloride (NED) solution for a 5-10 minute incubation at room temperature and protected from light. If any air bubbles were introduced into the well, the plates need to be centrifuged for 5 minutes at 400×g at room temperature to avoid interference with absorbance readings. The plates were read for absorbance within 30 minutes with a filter between 520 nm and 550 nm.
For the ability of compounds to suppress the increase in nitric oxide release, the percent maximal intensity of nitric oxide detected in each well was normalized to that induced by the peak value for 20 ng/mL of interferon gamma alone and plotted against the compound concentration to calculate IC50 values and to control for plate-to-plate variability. Concentration-response data were analyzed using GraphPad Prism (San Diego, Calif.); the IC50 values were derived from a single curve fit to the mean data of n=2-3, in duplicates.
All compounds were dissolved in dimethyl sulfoxide at 10 mM stock solutions and tested at a concentration that the dimethyl sulfoxide levels never exceeded 1%.

Row | Structure (SMILES) | pIC50
1 | CC1(C)C(=O)C(C#N)=C[C@]2(C)C3=CC(=O)[C@]4(O)[C@@H]5C[C@@](C)(C(=O)O)CC[C@]5(C)CC[C@@]4(C)[C@]3(C)CC[C@@H]12 [Example 3D, (2S,4aS,6aS,6bR,8aR,12aS,14aS,14bR)-11-cyano-14a-hydroxy-2,4a,6a,6b,9,9,12a-heptamethyl-10,14-dioxo-1,2,3,4,4a,5,6,6a,6b,7,8,8a,9,10,12a,14,14a,14b-octadecahydropicene-2-carboxylic acid] | 6.52
2 | CCC(C)CNC(=O)[C@@]1(C)CC[C@]2(C)CC[C@@]3(C)[C@]4(C)CC[C@H]5C(C)(C)C(=O)C(C#N)=C[C@]5(C)C4=CC(=O)[C@]3(O)[C@@H]2C1 (stereo partly drawn) [Example 33, (2S,4aS,6aS,6bR,8aR,12aS,14aS,14bR)-11-cyano-14a-hydroxy-2,4a,6a,6b,9,9,12a-heptamethyl-N-(2-methylbutyl)-10,14-dioxo-1,2,3,4,4a,5,6,6a,6b,7,8,8a,9,10,12a,14,14a,14b-octadecahydropicene-2-carboxamide] | 7.36
3 | CC1(C)C(=O)C(C#N)=C[C@]2(C)C3=CC(=O)[C@@H]4[C@@H]5C[C@@](C)(C(=O)NCc6cnco6)CC[C@]5(C)CC[C@@]4(C)[C@]3(C)CC[C@@H]12 [Example 39, (2S,4aS,6aR,6bS,8aR,12aS,14aR,14bS)-11-cyano-2,4a,6a,6b,9,9,12a-heptamethyl-N-(1,3-oxazol-5-ylmethyl)-10,14-dioxo-1,2,3,4,4a,5,6,6a,6b,7,8,8a,9,10,12a,14,14a,14b-octadecahydropicene-2-carboxamide] | 8.24
4 | CC1(C)C(=O)C(C#N)=C[C@]2(C)C3=CC(=O)[C@]4(O)[C@@H]5C[C@@](C)(C(=O)NCCO)CC[C@]5(C)CC[C@@]4(C)[C@]3(C)CC[C@@H]12 [Example 4, (2S,4aS,6aS,6bR,8aR,12aS,14aS,14bR)-11-cyano-14a-hydroxy-N-(2-hydroxyethyl)-2,4a,6a,6b,9,9,12a-heptamethyl-10,14-dioxo-1,2,3,4,4a,5,6,6a,6b,7,8,8a,9,10,12a,14,14a,14b-octadecahydropicene-2-carboxamide] | 7.26
5 | C[C@H](NC(=O)[C@@]1(C)CC[C@]2(C)CC[C@@]3(C)[C@]4(C)CC[C@H]5C(C)(C)C(=O)C(C#N)=C[C@]5(C)C4=CC(=O)[C@]3(O)[C@@H]2C1)c1ccccc1 [Example 20, (2S,4aS,6aS,6bR,8aR,12aS,14aS,14bR)-11-cyano-14a-hydroxy-2,4a,6a,6b,9,9,12a-heptamethyl-10,14-dioxo-N-[(1S)-1-phenylethyl]-1,2,3,4,4a,5,6,6a,6b,7,8,8a,9,10,12a,14,14a,14b-octadecahydropicene-2-carboxamide] | 7.41
6 | CC1(C)C(=O)C(C#N)=C[C@]2(C)C3=CC(=O)[C@@H]4[C@@H]5C[C@@](C)(C(=O)NCc6ccco6)CC[C@]5(C)CC[C@@]4(C)[C@]3(C)CC[C@@H]12 [Example 35, (2S,4aS,6aR,6bS,8aR,12aS,14aR,14bS)-11-cyano-N-(2-furylmethyl)-2,4a,6a,6b,9,9,12a-heptamethyl-10,14-dioxo-1,2,3,4,4a,5,6,6a,6b,7,8,8a,9,10,12a,14,14a,14b-octadecahydropicene-2-carboxamide] | 7.86
7 | CC1(C)C(=O)C(C#N)=C[C@]2(C)C3=CC(=O)[C@]4(O)[C@@H]5C[C@@](C)(C(=O)n6ccnc6)CC[C@]5(C)CC[C@@]4(C)[C@]3(C)CC[C@@H]12 [Example 15, (4aR,6aR,6bS,8aS,11S,12aR,12bS,14bS)-12b-hydroxy-11-(1H-imidazol-1-ylcarbonyl)-4,4,6a,6b,8a,11,14b-heptamethyl-3,13-dioxo-3,4,4a,5,6,6a,6b,7,8,8a,9,10,11,12,12a,12b,13,14b-octadecahydropicene-2-carbonitrile] | 6.57
8 | COCCNC(=O)[C@@]1(C)CC[C@]2(C)CC[C@@]3(C)[C@]4(C)CC[C@H]5C(C)(C)C(=O)C(C#N)=C[C@]5(C)C4=CC(=O)[C@]3(O)[C@@H]2C1 [Example 16, (2S,4aS,6aS,6bR,8aR,12aS,14aS,14bR)-11-cyano-14a-hydroxy-N-(2-methoxyethyl)-2,4a,6a,6b,9,9,12a-heptamethyl-10,14-dioxo-1,2,3,4,4a,5,6,6a,6b,7,8,8a,9,10,12a,14,14a,14b-octadecahydropicene-2-carboxamide] | 8.07
9 | CC(C)CCNC(=O)[C@@]1(C)CC[C@]2(C)CC[C@@]3(C)[C@]4(C)CC[C@H]5C(C)(C)C(=O)C(C#N)=C[C@]5(C)C4=CC(=O)[C@]3(O)[C@@H]2C1 [Example 17, (2S,4aS,6aS,6bR,8aR,12aS,14aS,14bR)-11-cyano-14a-hydroxy-2,4a,6a,6b,9,9,12a-heptamethyl-N-(3-methylbutyl)-10,14-dioxo-1,2,3,4,4a,5,6,6a,6b,7,8,8a,9,10,12a,14,14a,14b-octadecahydropicene-2-carboxamide] | 7.62
10 | COCC(COC)NC(=O)[C@@]1(C)CC[C@]2(C)CC[C@@]3(C)[C@]4(C)CC[C@H]5C(C)(C)C(=O)C(C#N)=C[C@]5(C)C4=CC(=O)[C@]3(O)[C@@H]2C1 [Example 23, (2S,4aS,6aS,6bR,8aR,12aS,14aS,14bR)-11-cyano-N-(1,3-dimethoxypropan-2-yl)-14a-hydroxy-2,4a,6a,6b,9,9,12a-heptamethyl-10,14-dioxo-1,2,3,4,4a,5,6,6a,6b,7,8,8a,9,10,12a,14,14a,14b-octadecahydropicene-2-carboxamide] | 7.97
11 | COc1ccccc1CNC(=O)[C@@]1(C)CC[C@]2(C)CC[C@@]3(C)[C@]4(C)CC[C@H]5C(C)(C)C(=O)C(C#N)=C[C@]5(C)C4=CC(=O)[C@]3(O)[C@@H]2C1 [Example 13, (2S,4aS,6aS,6bR,8aR,12aS,14aS,14bR)-11-cyano-14a-hydroxy-N-(2-methoxybenzyl)-2,4a,6a,6b,9,9,12a-heptamethyl-10,14-dioxo-1,2,3,4,4a,5,6,6a,6b,7,8,8a,9,10,12a,14,14a,14b-octadecahydropicene-2-carboxamide] | 7.22
12 | CC(C)(C)CNC(=O)[C@@]1(C)CC[C@]2(C)CC[C@@]3(C)[C@]4(C)CC[C@H]5C(C)(C)C(=O)C(C#N)=C[C@]5(C)C4=CC(=O)[C@]3(O)[C@@H]2C1 [Example 7, (2S,4aS,6aS,6bR,8aR,12aS,14aS,14bR)-11-cyano-N-(2,2-dimethylpropyl)-14a-hydroxy-2,4a,6a,6b,9,9,12a-heptamethyl-10,14-dioxo-1,2,3,4,4a,5,6,6a,6b,7,8,8a,9,10,12a,14,14a,14b-octadecahydropicene-2-carboxamide] | 7.65
13 | CCCNC(=O)[C@@]1(C)CC[C@]2(C)CC[C@@]3(C)[C@]4(C)CC[C@H]5C(C)(C)C(=O)C(C#N)=C[C@]5(C)C4=CC(=O)[C@]3(O)[C@@H]2C1 [Example 25, (2S,4aS,6aS,6bR,8aR,12aS,14aS,14bR)-11-cyano-14a-hydroxy-2,4a,6a,6b,9,9,12a-heptamethyl-10,14-dioxo-N-propyl-1,2,3,4,4a,5,6,6a,6b,7,8,8a,9,10,12a,14,14a,14b-octadecahydropicene-2-carboxamide] | 8.11
14 | CC(C)CNC(=O)[C@@]1(C)CC[C@]2(C)CC[C@@]3(C)[C@]4(C)CC[C@H]5C(C)(C)C(=O)C(C#N)=C[C@]5(C)C4=CC(=O)[C@]3(O)[C@@H]2C1 [Example 32, (2S,4aS,6aS,6bR,8aR,12aS,14aS,14bR)-11-cyano-14a-hydroxy-N-isobutyl-2,4a,6a,6b,9,9,12a-heptamethyl-10,14-dioxo-1,2,3,4,4a,5,6,6a,6b,7,8,8a,9,10,12a,14,14a,14b-octadecahydropicene-2-carboxamide] | 8.06
15 | COCCN(C)C(=O)[C@@]1(C)CC[C@]2(C)CC[C@@]3(C)[C@]4(C)CC[C@H]5C(C)(C)C(=O)C(C#N)=C[C@]5(C)C4=CC(=O)[C@]3(O)[C@@H]2C1 [Example 28, (2S,4aS,6aS,6bR,8aR,12aS,14aS,14bR)-11-cyano-14a-hydroxy-N-(2-methoxyethyl)-N,2,4a,6a,6b,9,9,12a-octamethyl-10,14-dioxo-1,2,3,4,4a,5,6,6a,6b,7,8,8a,9,10,12a,14,14a,14b-octadecahydropicene-2-carboxamide] | 7.76
16 | COc1ccc(NC(=O)[C@@]2(C)CC[C@]3(C)CC[C@@]4(C)[C@]5(C)CC[C@H]6C(C)(C)C(=O)C(C#N)=C[C@]6(C)C5=CC(=O)[C@]4(O)[C@@H]3C2)cc1 [Example 27, (2S,4aS,6aS,6bR,8aR,12aS,14aS,14bR)-11-cyano-14a-hydroxy-N-(4-methoxyphenyl)-2,4a,6a,6b,9,9,12a-heptamethyl-10,14-dioxo-1,2,3,4,4a,5,6,6a,6b,7,8,8a,9,10,12a,14,14a,14b-octadecahydropicene-2-carboxamide] | 7.87

Reference: patent publication US20140073700A1, “[…] ACID DERIVATIVES AND METHODS OF USE THEREOF” (AbbVie Inc., priority 2012, published 2014)
